The values below come from patent US20200131669A1, “CYCLIC PEPTIDE COMPOUND HAVING HIGH MEMBRANE PERMEABILITY, AND LIBRARY CONTAINING SAME” (Chugai Seiyaku Kabushiki Kaisha, priority 2017, published 2020).

Each structure is given as a SMILES string. Starred links: 1 amine or outer side, 2 acyl side, 3 side chain; linkers in the order of their positions; H or OH if unused. Positions of bridges follow the written chain, without caps; N, C: chain ends. Non-standard residues stand in square brackets, D forms with d. Residues, ends and D or L forms follow the SMILES beside them. *: point of attachment. NMePhe(3-Cl) = CN[C@@H](Cc1cccc(Cl)c1)C(=O)O; X16 = O=C(C1CCCCC1)[C@H](CC(=O)[*:2])N[*:1]; NMeF = CN[C@@H](Cc1ccccc1)C(=O)O; NMeGABA = CN(CCCC(=O)[*:2])[*:1]; 3Pal = N[C@@H](Cc1cccnc1)C(=O)O; 4Pal = N[C@@H](Cc1ccncc1)C(=O)O; NMeD = CN[C@@H](CC(=O)O)C(=O)O; NMeL = CN[C@@H](CC(C)C)C(=O)O; NMeV = CN[C@H](C(=O)O)C(C)C; NMeA = CN[C@@H](C)C(=O)O; Piperidide = C1CCN(*)CC1; dNMeA = CN[C@H](C)C(=O)O; Abu = CC[C@H](N)C(=O)O; Sar = CNCC(=O)O; tBu = CC(C)(C)*

A short description of this data set: Caco-2 membrane permeability, improved method as used in the following Examples (96-well, 20 to 24 h preincubation). It is filed as in vitro ADME. To be noted: human, Caco-2, Caco-2 (cm/sec). In a few lines: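 Caco-2 monolayers were grown three weeks and preincubated 20–24 h at 37 °C with compound in DMEM+FaSSIF (1% DMSO) apically. The assay then used compound in FaSSIF/HBSS (1% DMSO, pH 6.0) apically and HBSS with 4% BSA (pH 7.4) basally. Basal samples were taken at 180 min for LC/MS, and Papp (cm/sec) was calculated.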
In general terms: Caco-2 monolayers are a common model of the intestinal barrier.
One may read the Papp A→B as how fast a substance crosses the layer from the apical side. High values mean fast passage, low ones slow passage. In turn, `CC(C)C[C@H]1C(=O)N[C@@H](COC(C)(C)C)C(=O)N(C)[C@@H](Cc2ccccc2)C(=O)N(C)[C@@H](CC(C)C)C(=O)N[C@H](C(=O)N2CCCCC2)CC(=O)N[C@@H](C)C(=O)N(C)[C@@H](Cc2cccc(Cl)c2)C(=O)N[C@@H](C(C)C)C(=O)N(C)[C@@H](C(C)C)C(=O)N[C@@H]([C@@H](C)O)C(=O)N(C)CC(=O)N1C` [pd154] (A[NMePhe(3-Cl)]V[NMeV]T[Sar][NMeL]S(tBu)[NMeF][NMeL]D-Piperidide; lactam N-11) gave an apical-to-basolateral permeability (Papp A→B) at 180 min of 1.4 ×10⁻⁶ cm/s. To `CC(C)C[C@H]1C(=O)N[C@@H](COC(C)(C)C)C(=O)N(C)[C@@H](Cc2ccccc2)C(=O)N(C)[C@@H](CC(C)C)C(=O)N[C@H](C(=O)N2CCCCC2)CC(=O)N2CCC[C@@H]2C(=O)N(C)[C@@H](Cc2cccc(Cl)c2)C(=O)N[C@@H](C(C)C)C(=O)N(C)[C@@H](C(C)C)C(=O)N[C@@H]([C@@H](C)O)C(=O)N(C)CC(=O)N1C` [pd155] ([dP][NMePhe(3-Cl)]V[NMeV]T[Sar][NMeL]S(tBu)[NMeF][NMeL]D-Piperidide; lactam N-11) belongs 2.1 ×10⁻⁶ cm/s; to `CC(C)C[C@H]1C(=O)N[C@@H](COC(C)(C)C)C(=O)N(C)[C@@H](Cc2ccccc2)C(=O)N(C)[C@@H](CC(C)C)C(=O)N[C@H](C(=O)N2CCCCC2)CC(=O)N2CCC[C@H]2C(=O)N(C)[C@@H](Cc2cccc(Cl)c2)C(=O)N[C@@H](C(C)C)C(=O)N(C)[C@@H](C(C)C)C(=O)N[C@@H]([C@@H](C)O)C(=O)N(C)CC(=O)N1C` [pd156] (P[NMePhe(3-Cl)]V[NMeV]T[Sar][NMeL]S(tBu)[NMeF][NMeL]D-Piperidide; lactam N-11), 2.9 ×10⁻⁶ cm/s; to `CC(C)C[C@@H]1NC(=O)[C@H](Cc2cccc(Cl)c2)N(C)C(=O)[C@@H](C)NC(=O)C[C@@H](C(=O)N2CCCCC2)NC(=O)[C@H](CC(C)C)N(C)C(=O)[C@H](Cc2ccccc2)N(C)C(=O)[C@H](COC(C)(C)C)NC(=O)[C@H](C(C)C)N(C)C(=O)CN(C)C(=O)[C@H]([C@@H](C)O)NC(=O)[C@H](CC(C)C)N(C)C1=O` [pd157] ([dA][NMePhe(3-Cl)]L[NMeL]T[Sar][NMeV]S(tBu)[NMeF][NMeL]D-Piperidide; lactam N-11), 2.2 ×10⁻⁶ cm/s. To `CC[C@H](C)[C@@H]1NC(=O)[C@H](Cc2ccccc2)N(C)C(=O)CN(C)C(=O)C[C@@H](C(=O)N2CCCCC2)NC(=O)[C@H](C(C)C)N(C)C(=O)[C@H](COC(C)(C)C)NC(=O)[C@H](CC(C)C)N(C)C(=O)[C@H](Cc2cccc(Cl)c2)N(C)C(=O)CN(C)C(=O)[C@H]([C@@H](C)O)NC(=O)[C@H](CC(C)C)N(C)C1=O` [pd158] ([Sar][NMeF]I[NMeL]T[Sar][NMePhe(3-Cl)][NMeL]S(tBu)[NMeV]D-Piperidide; lactam N-11) belongs 1.4 ×10⁻⁶ cm/s; to `CC(C)C[C@H]1C(=O)N[C@@H](COC(C)(C)C)C(=O)N(C)[C@@H](Cc2ccccc2)C(=O)N(C)[C@@H](CC(C)C)C(=O)N(C)[C@H](C(=O)N2CCCCC2)CC(=O)N[C@H](C)C(=O)N(C)[C@@H](Cc2cccc(Cl)c2)C(=O)N[C@@H](C(C)C)C(=O)N(C)[C@@H](C(C)C)C(=O)N[C@@H]([C@@H](C)O)C(=O)N(C)CC(=O)N1C` [pd159] ([dA][NMePhe(3-Cl)]V[NMeV]T[Sar][NMeL]S(tBu)[NMeF][NMeL][NMeD]-Piperidide; lactam N-11), 1.8 ×10⁻⁶ cm/s; to `CC(C)C[C@H]1C(=O)N[C@@H](COC(C)(C)C)C(=O)N(C)[C@@H](Cc2ccccc2)C(=O)N(C)[C@@H](CC(C)C)C(=O)N(C)[C@H](C(=O)N2CCCCC2)CC(=O)N[C@@H](C)C(=O)N(C)[C@@H](Cc2cccc(Cl)c2)C(=O)N[C@@H](C(C)C)C(=O)N(C)[C@@H](C(C)C)C(=O)N[C@@H]([C@@H](C)O)C(=O)N(C)CC(=O)N1C` [pd160] (A[NMePhe(3-Cl)]V[NMeV]T[Sar][NMeL]S(tBu)[NMeF][NMeL][NMeD]-Piperidide; lactam N-11), 3.4 ×10⁻⁶ cm/s. `CC(C)C[C@@H]1NC(=O)[C@H](C)N(C)C(=O)C[C@@H](C(=O)N2CCCCC2)NC(=O)[C@H](CC(C)C)N(C)C(=O)CN(C)C(=O)[C@H]([C@@H](C)O)NC(=O)[C@H](CC(C)C)N(C)C(=O)[C@H](Cc2cccc(Cl)c2)N(C)C(=O)[C@H](C)NC(=O)[C@H](Cc2ccccc2)N(C)C(=O)[C@H](CC(C)C)N(C)C1=O` [pd161] ([NMeA]L[NMeL][NMeF]A[NMePhe(3-Cl)][NMeL]T[Sar][NMeL]D-Piperidide; lactam N-11) came in with a Papp A→B at 180 min of 1.4 ×10⁻⁶ cm/s.

Take `CC[C@@H]1NC(=O)[C@H](C(C)C)N(C)C(=O)[C@@H](C(C)C)NC(=O)C[C@@H](C(=O)N2CCCCC2)NC(=O)[C@H](CC(C)C)N(C)C(=O)[C@H](Cc2cccc(Cl)c2)N(C)C(=O)[C@H](COC(C)(C)C)NC(=O)[C@H](CC(C)C)N(C)C(=O)CN(C)C(=O)[C@H](Cc2cccnc2)NC(=O)[C@H](CC(C)C)N(C)C1=O` [pd164] ([dV][NMeV][Abu][NMeL][3Pal][Sar][NMeL]S(tBu)[NMePhe(3-Cl)][NMeL]D-Piperidide; lactam N-11): the apparent permeability from apical to basolateral (Papp A→B) at 180 min worked out at 1.6 ×10⁻⁶ cm/s. This Papp A→B at 180 min and that of the compound before are within 1.5-fold of each other. In the case of `CC(C)C[C@H]1C(=O)N[C@@H](COC(C)(C)C)C(=O)N(C)[C@@H](Cc2ccccc2)C(=O)N(C)[C@@H](CC(C)C)C(=O)N(C)[C@H](C(=O)N2CCCCC2)CC(=O)N2CCC[C@@H]2C(=O)N(C)[C@@H](Cc2cccc(Cl)c2)C(=O)N[C@@H](C(C)C)C(=O)N(C)[C@@H](C(C)C)C(=O)N[C@@H]([C@@H](C)O)C(=O)N(C)CC(=O)N1C` [pd165] ([dP][NMePhe(3-Cl)]V[NMeV]T[Sar][NMeL]S(tBu)[NMeF][NMeL][NMeD]-Piperidide; lactam N-11) it was 2.8 ×10⁻⁶ cm/s. Compound `CC(C)C[C@H]1C(=O)N[C@@H](COC(C)(C)C)C(=O)N(C)[C@@H](Cc2ccccc2)C(=O)N(C)[C@@H](CC(C)C)C(=O)N(C)[C@H](C(=O)N2CCCCC2)CC(=O)N2CCC[C@H]2C(=O)N(C)[C@@H](Cc2cccc(Cl)c2)C(=O)N[C@@H](C(C)C)C(=O)N(C)[C@@H](C(C)C)C(=O)N[C@@H]([C@@H](C)O)C(=O)N(C)CC(=O)N1C` [pd166] (P[NMePhe(3-Cl)]V[NMeV]T[Sar][NMeL]S(tBu)[NMeF][NMeL][NMeD]-Piperidide; lactam N-11) displayed a Papp A→B at 180 min of 3.2 ×10⁻⁶ cm/s. To `CC(C)C[C@H]1C(=O)N[C@@H](COC(C)(C)C)C(=O)N(C)[C@@H](Cc2ccccc2)C(=O)N(C)[C@@H](CC(C)C)C(=O)N(C)[C@H](C(=O)N2CCCCC2)CC(=O)N(C)[C@H](C)C(=O)N(C)[C@@H](Cc2cccc(Cl)c2)C(=O)N[C@@H](C(C)C)C(=O)N(C)[C@@H](C(C)C)C(=O)N[C@@H]([C@@H](C)O)C(=O)N(C)CC(=O)N1C` [pd168] ([dNMeA][NMePhe(3-Cl)]V[NMeV]T[Sar][NMeL]S(tBu)[NMeF][NMeL][NMeD]-Piperidide; lactam N-11) belongs 2.3 ×10⁻⁶ cm/s; to `CC(C)C[C@H]1C(=O)N[C@@H](COC(C)(C)C)C(=O)N(C)[C@@H](Cc2ccccc2)C(=O)N(C)[C@@H](CC(C)C)C(=O)N(C)[C@H](C(=O)N2CCCCC2)CC(=O)N(C)[C@@H](C)C(=O)N(C)[C@@H](Cc2cccc(Cl)c2)C(=O)N[C@@H](C(C)C)C(=O)N(C)[C@@H](C(C)C)C(=O)N[C@@H]([C@@H](C)O)C(=O)N(C)CC(=O)N1C` [pd169] ([NMeA][NMePhe(3-Cl)]V[NMeV]T[Sar][NMeL]S(tBu)[NMeF][NMeL][NMeD]-Piperidide; lactam N-11), 3.8 ×10⁻⁶ cm/s; to `CC[C@H](C)[C@@H]1NC(=O)[C@H](CC(C)C)N(C)C(=O)CCCN(C)C(=O)C[C@@H](C(=O)C2CCCCC2)NC(=O)[C@H](CC(C)C)N(C)C(=O)[C@H](C)N(C)C(=O)[C@H](Cc2ccncc2)NC(=O)[C@H](CC(C)C)N(C)C(=O)[C@H](COC(C)(C)C)NC(=O)[C@H](Cc2cccc(Cl)c2)N(C)C(=O)[C@H](CC(C)C)N(C)C1=O` [pd170] (cyclo([4Pal][NMeA][NMeL][X16][NMeGABA][NMeL]I[NMeL][NMePhe(3-Cl)]S(tBu)[NMeL])), 1.6 ×10⁻⁶ cm/s.

`CC(C)C[C@@H]1NC(=O)[C@H](CC(C)C)N(C)C(=O)[C@H](C)N(C)C(=O)[C@H]([C@@H](C)O)NC(=O)[C@H](CC(C)C)N(C)C(=O)[C@H](COC(C)(C)C)NC(=O)[C@H](Cc2cccc(Cl)c2)N(C)C(=O)[C@H](CC(C)C)NC(=O)[C@H](C(C)C)N(C)C(=O)[C@@H](C(C)C)NC(=O)C[C@@H](C(=O)N2CCCCC2)NC1=O` [pd171] ([dV][NMeV]L[NMePhe(3-Cl)]S(tBu)[NMeL]T[NMeA][NMeL]LD-Piperidide; lactam N-11) gave a Papp A→B at 180 min of 1.2 ×10⁻⁶ cm/s. Regarding `CC(C)C[C@@H]1NC(=O)[C@H](CC(C)C)N(C)C(=O)[C@@H](CC(C)C)NC(=O)C[C@@H](C(=O)N2CCCCC2)NC(=O)[C@H](CC(C)C)N(C)C(=O)[C@H](Cc2cccc(Cl)c2)N(C)C(=O)[C@H](Cc2ccncc2)NC(=O)[C@H](CC(C)C)N(C)C(=O)CN(C)C(=O)[C@H]([C@@H](C)O)NC(=O)[C@H](CC(C)C)N(C)C1=O` [pd172] ([dL][NMeL]L[NMeL]T[Sar][NMeL][4Pal][NMePhe(3-Cl)][NMeL]D-Piperidide; lactam N-11), the Papp A→B at 180 min came out at 1.1 ×10⁻⁶ cm/s.
